Results: PMC10243242 (European Journal of Clinical Pharmacology, 2023)
Where “and” joins values, the source holds several entries; their conditions need not be identical. Equal values may be shown once. Read-outs that look alike come from different tables or passages of the source. Marks after values point to notes of the source that are not given here.

Key:
[1] = Clinical drug-drug interaction study: plasma pharmacokinetics of dextromethorphan and dextrorphan with and without emvododstat; format: in vivo, human; settings: for CL/F: dextromethorphan; for Tmax: median (range)
Procedure: (§1) On day 1, 18 healthy subjects (ages ≥ 18 and ≤ 65 years) received a single oral dose of 30 mg (capsule) dextromethorphan followed by a 4-day washout period. On day 5, subjects received a single oral dose of 250 mg emvododstat with food. Two hours later, subjects were administered a single oral dose of 30 mg modified-release dextromethorphan.
Blood samples (3 mL) for dextromethorphan and dextrorphan assessments were collected in K2EDTA vacutainers on day 1 (dextromethorphan alone) and on day 5 (dextromethorphan in combination with emvododstat) at the following timepoints: 0- (predose), 0.5-, 1-, 2-, 3-, 4-, 5-, 6-, 8-, 12-, 24-, and 48-h post dextromethorphan dose. Within 120 min of collection of blood samples, plasma was harvested by centrifuging blood samples at 2000 ± 20 g for 10 min at 4 °C. Upon harvesting, plasma was transferred to 2-mL polypropylene tubes and immediately stored at – 20 ± 5 °C until analysis.
Concentrations of dextromethorphan and dextrorphan in human plasma samples were determined using high-performance liquid chromatography with tandem mass […] (LC-MS/MS) detection. The bioanalytical method was validated, and its performance during bioanalysis was within the limits specified in current regulatory guidance over a calibration range of 50 to 50,000 pg/mL. Validation included testing such as linearity, sensitivity, specificity, selectivity, accuracy and precision, dilution effects, recovery, ruggedness, and stability.
Briefly, dextromethorphan and dextrorphan were extracted from 0.2 mL of human K2EDTA plasma using an automated liquid–liquid extraction followed by detection using LC-MS/MS. Stable isotope labeled internal standard (dextromethorphan-d3 and dextrorphan-d3) was used to track the analytes potential variability. To 0.2 mL of plasma, the internal standard (IS) working solution diluted in an ammonium formate/ammonium hydroxide buffer solution was added. The analytes and ISs were extracted using methyl-tert-butyl-ether (MTBE). A portion of the upper layer was transferred to a 96 deep well collection plate using an automated liquid handling system. After evaporation to dryness, the dry residue was reconstituted with the mobile phase and injected on a Sciex API 4000. The chromatographic separation was performed in isocratic mode using BetaSil CN column (dimensions 50 × 4.6 mm, 5 μm) and methanol/Milli-Q type water with ammonium formate and formic acid as mobile phase. The mass spectrometer detection was performed in positive ion mode with multiple reaction monitoring (MRM) transitions of 272.2 → 215.3, 275.2 → 215.3, 258.2 → 201.2, and 261.2 → 157.2 for dextromethorphan, dextromethorphan-d3, dextrorphan, and dextrorphan-d3, respectively.
Dextromethorphan and dextrorphan concentrations in study plasma samples were determined using duplicate plasma calibration curves of dextromethorphan and dextrorphan in each analytical batch. Additionally, duplicate quality control plasma samples spiked with dextromethorphan and dextrorphan at four concentration levels (low, 150 pg/mL; intermediate, 2000 pg/mL; medium, 25,000 pg/mL; and high, […]) were included in each analytical batch to assess the assay performance of the bioanalytical method. The accuracy (%bias) of QC samples in all analytical batches was within ± 4.6%, and precision (%coefficient of variation) was less than 6.2% for dextromethorphan and dextrorphan.
Non-compartmental pharmacokinetics were performed using Phoenix® WinNonlin (Version 8.1, Certara, Princeton, NJ, USA). Primary parameters consisted of AUC0-last, AUC0-inf, and Cmax. Secondary parameters included T1/2, Tmax, and CL/F (drug clearance). Bioavailability assessments were calculated using SAS software (Version 9.4, SAS, Cary, NC, USA) in accordance with current regulatory guidelines. A mixed linear model was fitted on log-transformed AUC0-inf, AUC0-t, and Cmax for both parent and metabolite. […]

[2] = Safety and tolerability in healthy subjects; format: in vivo, human; settings: single doses of dextromethorphan 30 mg with and without emvododstat 250 mg, 18 healthy subjects
Source text: The safety and tolerability of dextromethorphan alone and with emvododstat were monitored.

SARS-CoV-2 = test system: SARS-CoV-2; parameters: method as in PMID 33249060; settings: SARS-CoV-2019, cell culture, cited from earlier work
CYP2D6 [3] = molecular target: T1, CYP2D6 (Homo sapiens, UniProt P10635); parameters: method as in PMID 34846990; settings: cited from earlier work
[4] = test system: human bone marrow progenitor cells; settings: cultured human bone marrow progenitor cells; cited from earlier work
[5] = rats dosed for up to 28 days; cited from earlier work
[6] = dogs dosed for up to 28 days; cited from earlier work
[7] = humans; cited from earlier work
CYP2D6 [8] = molecular target: T1, CYP2D6; experiment: Clinical drug-drug interaction study: in vivo CYP2D6 inhibition with dextromethorphan as probe substrate; parameters: On day 1, 18 healthy subjects (ages ≥ 18 and ≤ 65 years) received a single oral dose of 30 mg (capsule) dextromethorphan; from tissue; host or cells: Healthy human subjects in vivo; The enzyme is their own; settings: single oral dose 250 mg emvododstat, dextromethorphan as sensitive probe substrate, healthy subjects
Procedure: as §1
Non-compartmental pharmacokinetics were performed using Phoenix® WinNonlin (Version 8.1, Certara, Princeton, NJ, USA). Primary parameters consisted of AUC0-last, AUC0-inf, and Cmax. Secondary parameters included T1/2, Tmax, and CL/F (drug clearance). Bioavailability assessments were calculated using SAS software (Version 9.4, SAS, Cary, NC, USA) in accordance with current regulatory guidelines. A mixed linear model was fitted on log-transformed AUC0-inf, AUC0-t, and Cmax for both parent and metabolite. The model included terms for treatment (combined emvododstat + dextromethorphan as test treatment versus dextromethorphan as reference treatment) and subject as a random factor. LSM (geometric least squares mean) for the treatment ratio and 90% confidence intervals (90% CI) were estimated from the model.

[9] = dextromethorphan with emvododstat vs alone
[10] = dextrorphan in plasma after 30 mg dextromethorphan alone, geometric mean (%CV)
[11] = dextrorphan in plasma after 30 mg dextromethorphan with 250 mg emvododstat, geometric mean (%CV)

T1 sequence (P10635 whole entry): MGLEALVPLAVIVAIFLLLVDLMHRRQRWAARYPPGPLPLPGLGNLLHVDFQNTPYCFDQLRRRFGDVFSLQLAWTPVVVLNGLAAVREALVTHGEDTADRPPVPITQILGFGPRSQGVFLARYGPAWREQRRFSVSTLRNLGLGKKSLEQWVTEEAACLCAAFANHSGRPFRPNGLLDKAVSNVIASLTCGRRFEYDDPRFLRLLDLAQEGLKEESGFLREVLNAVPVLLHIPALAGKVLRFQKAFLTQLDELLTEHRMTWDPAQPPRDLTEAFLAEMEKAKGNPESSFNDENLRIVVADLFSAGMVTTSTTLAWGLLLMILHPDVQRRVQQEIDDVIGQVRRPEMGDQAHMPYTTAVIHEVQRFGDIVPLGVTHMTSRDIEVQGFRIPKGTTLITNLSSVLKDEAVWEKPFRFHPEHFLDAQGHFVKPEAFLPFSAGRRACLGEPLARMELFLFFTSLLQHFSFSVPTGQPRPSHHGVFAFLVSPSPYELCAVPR

With `COc1ccc2c(c1)[C@]13CCCC[C@@H]1[C@H](C2)N(C)CC3` [Dextromethorphan, dextromethorphan, reference compound] the T1/2 ([1]; dextromethorphan in plasma, 30 mg dextromethorphan with 250 mg emvododstat (day 5), geometric mean (%CV), n = 16) was 41.4^b (39.2) h, the T1/2 ([1]; dextromethorphan in plasma, 30 mg oral dextromethorphan alone (day 1), geometric mean (%CV)) was 9.15 (25.2) h and the “Increase in T1/2” value [1, 9] was 32 h. For the same molecule, the “Reduction in clearance (CL/F)” value [1, 9] was 94%, the CL/F ([1]; 30 mg dextromethorphan with 250 mg emvododstat (day 5), geometric mean (%CV), n = 16) was 81.5^b (117.0) L/h and the CL/F ([1]; 30 mg oral dextromethorphan alone (day 1), geometric mean (%CV)) was 1367 (176.7) L/h. The AUC(0-t) ([1]; human, oral, dextromethorphan in plasma, 30 mg dextromethorphan with 250 mg emvododstat (day 5), geometric mean (%CV)) was 0.157 µg·h/mL, the AUC(0-inf) ([1]; human, oral, dextromethorphan in plasma, 30 mg dextromethorphan with 250 mg emvododstat (day 5), geometric mean (%CV), n = 16, read-out: AUC0-inf) was 0.362 µg·h/mL and the Tmax ([1]; human, oral, dextromethorphan in plasma, 30 mg dextromethorphan with 250 mg emvododstat (day 5), read-out: Tmax) was 4 h. For the same molecule, the half-life ([1]; human, plasma, oral, dextromethorphan in plasma, 30 mg dextromethorphan with 250 mg emvododstat (day 5), geometric mean (%CV), n = 16, read-out: T1/2 (converted)) was 41 h, the half-life ([1]; human, plasma, po, 30 mg, dextromethorphan in plasma, 30 mg oral dextromethorphan alone (day 1), geometric mean (%CV), read-out: T1/2 (converted)) was 9 h and the Cmax ([1]; human, dextromethorphan in plasma, 30 mg dextromethorphan 2 h after 250 mg oral emvododstat (day 5), geometric mean (%CV)) was 5.85 ng/mL. It also gave an AUC(0-t) ([1]; human, dextromethorphan in plasma, 30 mg oral dextromethorphan alone (day 1), geometric mean (%CV)) of 0.0188 µg·h/mL, an AUC(0-inf) ([1]; human, dextromethorphan in plasma, 30 mg oral dextromethorphan alone (day 1), geometric mean (%CV), read-out: AUC0-inf) of 0.0216 µg·h/mL and a Cmax ([1]; human, dextromethorphan in plasma, 30 mg oral dextromethorphan alone (day 1), healthy subjects, geometric mean (%CV)) of 2.01 ng/mL. The Tmax ([1]; human, dextromethorphan in plasma, 30 mg oral dextromethorphan alone (day 1), read-out: Tmax) was 4 h and the Drug-related adverse effects [2] was “mild and reversible”.
In the case of `CN1CC[C@@]23CCCC[C@@H]2[C@@H]1Cc1ccc(O)cc13` [Dextrorphan, dextrorphan], the “Geometric mean metabolite/parent ratio for AUC (dextrorphan/dextromethorphan)” value ([1]; dextromethorphan in the presence of emvododstat) is reported as 0.182 and 0.18, the AUC0-last [1, 10] is reported as 31,852 (45.7) h·pg/mL and the AUC(0-inf) [1, 10] is reported as 33,194 (43.8) h·pg/mL. The AUC0-last [1, 11] was 29,382 (40.7) h·pg/mL, the AUC(0-inf) [1, 11] was 30,875 (38.8) h·pg/mL and the Tmax ([1]; dextrorphan in plasma after 30 mg dextromethorphan with 250 mg emvododstat) was 4 (1–4) h. For the same molecule, the “Effect of CYP2D6 inhibition on peak exposure (Cmax)” value ([1]; dextrorphan, Cmax LSM ratio just inside, 90% CIs outside of the no effect range 0.80 to 1.25) was “slightly affected”, the Cmax ([1]; human, oral, dextrorphan in plasma after 30 mg dextromethorphan alone, geometric mean (%CV)) was 5 ng/mL and the Cmax ([1]; human, oral, dextrorphan in plasma after 30 mg dextromethorphan with 250 mg emvododstat, geometric mean (%CV)) was 4.05 ng/mL. The half-life ([1]; human, plasma, oral, 30 mg, dextrorphan in plasma after 30 mg dextromethorphan alone, geometric mean (%CV), read-out: T1/2 (converted)) was 5.86 h, the half-life ([1]; human, plasma, oral, dextrorphan in plasma after 30 mg dextromethorphan with 250 mg emvododstat, geometric mean (%CV), read-out: T1/2 (converted)) was 8.41 h and the half-life ([1]; human, plasma, oral, dextrorphan, alone and in combination with emvododstat, read-out: Effective T1/2) was 6 to 8 h. For the same molecule, the AUC(0-t) ([1]; human, plasma, oral, dextrorphan, 30 mg dextromethorphan capsules alone) was 0.0319 µg·h/mL, the AUC(0-inf) ([1]; human, plasma, oral, dextrorphan, 30 mg dextromethorphan capsules alone, read-out: AUC0-inf) was 0.0332 µg·h/mL and the AUC(0-t) ([1]; human, plasma, oral, dextrorphan, dextromethorphan given concurrently with emvododstat) was 0.0294 µg·h/mL. For the same molecule, the AUC(0-inf) ([1]; human, plasma, oral, dextrorphan, dextromethorphan given concurrently with emvododstat, read-out: AUC0-inf) was 0.0309 µg·h/mL and the “Geometric mean metabolite/parent ratio for AUC (dextrorphan/dextromethorphan)” value ([1]; prior to administration of emvododstat) was 1.69.
In the case of `COc1ccc(C2c3[nH]c4ccc(Cl)cc4c3CCN2C(=O)Oc2ccc(Cl)cc2)cc1` (stereo not shown) [Emvododstat, 4-chlorophenyl 6-chloro-1-[4-methoxyphenyl]-1,3,4,9-tetrahydro-2H-pyrido[3,4-b]indole-2-carboxylate], the Drug-related adverse effects [2] is listed as “mild and reversible”, the EC50 (SARS-CoV-2; read-out: EC50, decreased capsid protein) is listed as 0.00196 µM and the EC50 (SARS-CoV-2; read-out: EC50, decreased viral titer) is listed as 0.0026 µM. The EC90 (SARS-CoV-2; read-out: EC90, decreased viral titer) was 0.053 µM, the Ki (CYP2D6 [3]; human liver microsomes, non-competitive inhibitor, read-out: Inhibition constant (Ki) for CYP2D6) was 0.038 µM and 0.0377 µM and the IC50 (CYP2D6 [3]; in vitro) was 0.017 µM. The “Effect on viability or proliferation” value [4] was “does not impair”, the Myelotoxicity [5] was “no evidence of myelotoxicity” and the Myelotoxicity [6] was “no evidence of myelotoxicity”. For the same molecule, the Myelotoxicity [7] was “no evidence of myelotoxicity” and the “In vivo CYP2D6 inhibitor classification” value (CYP2D6 [8]) was “strong inhibitor of CYP2D6 activity”.
For `O=C(Oc1ccc(Cl)cc1)N1CCc2c([nH]c3ccc(Cl)cc23)C1c1ccc(O)cc1` (stereo not shown) [O-desmethyl emvododstat], the “Inhibition of CYP2D6 activity (in words)” value (CYP2D6 [3]; in vitro, compared with emvododstat) is given as “to a lesser extent”.
